Measured values as given in PMC8208971, “Copper-binding anticancer peptides from the piscidin family: an expanded mechanism that encompasses physical and chemical bilayer disruption” (Scientific Reports, 2021).
pIC50: −log10 of the molar value. Like-named read-outs stand apart in the source and are kept apart here. No end group written: not given here.

Columns and labels:
[1] = system: HT1080 (fibrosarcoma) cancer cells; assay: MTS cytotoxicity assay on HT1080 cells; format: cell-based
[2] = system: MDA-MB-231 (breast) cancer cells; format: cell-based; details: for pIC50: 24 h
[3] = SPR/EIS on tethered bilayer membrane (membrane permeation); details: POPC tBLM, Tris 20 mmol/L, 50 mmol/L NaCl, pH 7.4; steps of 0.1 μmol/L, 10 min each
Protocol: Planar, tethered bilayer membranes (tBLM) supported on gold-coated surfaces (Fig. 2C) were made using 1-palmitoyl-2-oleoyl-sn-glycero-3-phosphocholine (POPC) to mimic cancer cell membranes[80],[81]. Combined, surface plasmon resonance (SPR)/electrical impedance spectroscopy (EIS) measurements (Fig. 3) were conducted by injecting the peptide in small increments while simultaneously observing (1) the kinetics associated with the peptides binding to the bilayer (SPR) and (2) the formation of peptide-lined defects that increase membrane permeation and conductance (EIS). […]
SPR/EIS measurements were carried out on tethered bilayer membrane (tBLM) using a custom-built instrument previously described (Fig. 2B)[123],[124]. […] Several POPC tBLMs were assembled on the gold surfaces using thiolated polyethyleneglycol linker molecules (1,2-di-O-myristyl-3-[ω-mercaptohexa(ethylene oxide) glycerol] (WC14) and β-mercaptoethanol (βME) at a ratio of 70:30 βME:WC14. The tBLMs were equilibrated in Tris buffer (20 mmol/L, 50 mmol/L NaCl, pH 7.4) and allowed to rest until both SPR and EIS signals were stable, before peptide injection. Two types of measurements were done. In the first type (Fig. 3), the peptide concentration was increased gradually, in steps of 0.1 μmol/L, and the SPR/EIS was monitored for 10 min after each addition. […]

[4] = system: normal MRC-5 (lung) fibroblast cells; design: dose or concentration left out as unconfirmed; details: at about; ref Lin et al.1; cited from earlier work
Excerpt: (§1) Tested at up to 10 µ mol/L ...

[5] = Lipid oxidation, absorbance at 234 nm; details: SUVs 0.20 mg/mL, P/L = 1:10 (26 µmol/L), 4 mmol/L phosphate pH 7.8, 24 h exposure to air, triplicates
Excerpt: It has long been known that certain divalent metal ions, especially iron and copper, promote lipid peroxidation (oxidative deterioration of polyunsaturated fatty acids), a mechanism that has been strongly associated with cellular injury and death. Divalent transition-metal ions participate in Fenton-like chemical reactions produces ROS (e.g., hydroxyl radicals, superoxide) that can oxidize double bonds within the membrane. Here, to learn about the possible piscidin/Cu^2+-mediated oxidation of double bonds in lipid bilayers, we used absorbance and mass spectrometry to measure the formation of the oxidation products in small unilamellar vesicles (SUV) constituted of di-linoleoyl-sn-glycero-3-phosphocholine (DLPC) and POPG mixed in a 3:1 molar ratio and prepared at a concentration of 0.50 mg total lipid/mL. We first tested the ability of free Cu^2+ to oxidize the double bonds within the liposomes. Increasing amounts of Cu^2+ for a fixed amount of lipids (expressed as Cu/L, the molar ratio of Cu^2+ to total lipid) were mixed with the SUVs and the absorbance was measured at λ = 234 nm (Fig. 7A) (corresponding to λmax for the conjugated dienes that appear in lipid oxidation products)[92],[93]. Because molecular oxygen (O2) found in the atmosphere readily dissolves in the bilayer, no exogenous oxidant is needed to initiate the oxidation of the double bonds. […]

[6] = system: normal MRC-5 (lung) fibroblast cells; assay: Cytotoxicity assay on normal MRC-5 fibroblasts; format: cell-based; details: 95% confidence interval in parentheses; for apo-P1 given as 50% inhibition at
Excerpt: A549 human lung cancer cells were obtained from ATCC (ATCC CCL-185) and were maintained in Dulbecco’s Modified Eagle’s Medium (DMEM-F12, Lonza, catalog no. 12-719F) supplemented with 10% heat inactivated FBS and 1% Penn-Step. The HT1080 and MRC-5 cells were purchased from ATCC (catalog no. CCL-121 and CCL-171, respectively) and grown in Eagle’s Minimum Essential Medium (ATCC, catalog no. 30-2003TM) that was supplemented with FBS (ATCC, catalog no. 30-2021TM) such that the medium contained 10% FBS. The MDA-MB-231 and HeLa cells were obtained from ATCC (ATCC, catalog no. HTB-26 and CCL-2, respectively) and maintained in DMEM supplemented with 10% FBS. All cell cultures were grown at 37.5 °C in a humidified 5% CO2 atmosphere.
The cytotoxicity assays followed well established procedure, with the details given in the Supplementary Information. The assays were performed in triplicates using 96 well plates Cell viability was calculated using the equation: % viability = [(AT-AB)/(AC-AB)] × 100, where AT is the absorbance of the treatment well, AB is the average background absorbance measured from three wells containing only media, and AC is the absorbance of the […] control well, which received only 100 µL of media and 40 µL of MTT solution (i.e. no peptide). Averages and error bars were calculated as the mean + / − standard deviation based on triplicates. The IC50 values were obtained by fitting the percentage viability (% viability) vs Log (M) concentration of peptides to generate inhibitor dose response curve using the GraphPad Prism software. The curves were fitted using a least-squares minimization method. Individual data points on the graphs are provided as the mean (± standard deviation) from the triplicate % viability values. The GraphPad Prism algorithm converted the logIC50 into IC50 and used the standard error of the mean on the logIC50 to yield the 95% confidence interval for the logIC50 and IC50.
P1-Cu2+ and P3-Cu2+ were assayed on normal MRC-5 (lung) fibroblast cells (ATTC catalog no CCL-171), giving
given in parentheses. […]

[7] = system: A549 human lung cancer cells; assay: MTT cytotoxicity assay on A549 cells; format: cell-based; details: for Factor by which metallation with Cu^2+ increases efficacy, A549: from average IC50 values, apo vs Cu^2+-bound
[8] = system: HGF-1 (gingival) fibroblast cells; details: tested at up; no significant inhibitory effects; ref Cheng et al.2; cited from earlier work
Excerpt: as §1

[9] = system: OMF (mucosal) fibroblast cells; details: tested at up to 10 mol/L; no significant inhibitory effects; ref Cheng et al.2; cited from earlier work
Excerpt: as §1

[10] = system: HeLa (cervical) cancer cells; assay: MTS cytotoxicity assay on HeLa cells; format: cell-based; details: 24 h treatment, triplicates, 95% CI in parentheses, for P3 first data point at 0.16 µmol/L not used, holo-forms 1:1 CuCl2

Compound	Peptide concentration inducing drop in bilayer resistance (EIS) [3] [µmol/L]	Lipid oxidation (absorbance peak at 234 nm) [5]	pIC50 [6]	Factor by which metallation with Cu^2+ increases efficacy, A549 [7]	pIC50 [2]	pIC50 ([7]; 24 h)	pIC50 ([1]; 24 h)	further results
[Cl][Cu][Cl] [Free Cu^2+, CuCl2, reference compound]	–	–	–	–	–	–	–	Cytotoxicity of free Cu^2+ ([1]; CuCl2 tested at up to 30 µmol/L, HT1080 cells, same conditions as the peptides (Fig. S1B)): not cytotoxic
FFHHIFRGIVHVGKTIHRLVTG-NH2 [P1, piscidin 1]	0.2	little lipid oxidation	5.07	≈ 2 fold	–	–	–	Factor by which metallation with Cu^2+ increases efficacy, MDA-MB-231 ([2]; from average IC50 values, apo vs Cu^2+-bound, given as 'up to'): ≈ 2 fold; Inhibition of MRC-5 cells [4]: ~ 45%; Survival, HGF-1 [8]: > 90%; Survival, OMF [9]: > 90%
FFHHIFRGIVHVGKTIHRLVTG-NH2 [P1-Cu^2+]	–	–	5.22	–	–	–	–	pIC50 [10]: 5.66; pIC50 ([7]; MTT, 24 h treatment, triplicates, 95% CI in parentheses, holo-forms 1:1 CuCl2, read-out: IC50, A549): 5.67; pIC50 ([1]; MTS, 24 h treatment, triplicates, 95% confidence interval in parentheses, holo-forms metallated 1:1 with CuCl2, read-out: IC50, HT1080): 5.27
FIHHIFRGIVHAGRSIGRFLTG-NH2 [P3, piscidin 3]	0.5	little lipid oxidation	–	≈ 7 fold	4.76	4.67	4.58	Factor by which metallation with Cu^2+ increases efficacy, HT1080 ([1]; from average IC50 values, apo vs Cu^2+-bound): ≈ 5 fold
FIHHIFRGIVHAGRSIGRFLTG-NH2 [P3-Cu^2+]	–	–	5.06	–	5.28	5.52	5.26	–
